Patent US20120178738A1, “DIBENZO [B,F] [1,4]OXAZAPINE COMPOUNDS” (ARYX THERAPEUTICS, INC., priority 2007, published 2012)
Read-outs that look alike come from different tables or passages of the source.

Columns and labels:
5-HT2A receptor = molecular target: T1, 5-HT2A receptor (Rattus norvegicus, UniProt P14842); test: cell-based
T1 construct: Eight strips of tissue (0.5 cm long) were cut. and were mounted in 10 ml organ baths; tissue Charles River Laboratories; host or cells: rat aorta strips, endothelium removed
T1 sequence (P14842 whole entry): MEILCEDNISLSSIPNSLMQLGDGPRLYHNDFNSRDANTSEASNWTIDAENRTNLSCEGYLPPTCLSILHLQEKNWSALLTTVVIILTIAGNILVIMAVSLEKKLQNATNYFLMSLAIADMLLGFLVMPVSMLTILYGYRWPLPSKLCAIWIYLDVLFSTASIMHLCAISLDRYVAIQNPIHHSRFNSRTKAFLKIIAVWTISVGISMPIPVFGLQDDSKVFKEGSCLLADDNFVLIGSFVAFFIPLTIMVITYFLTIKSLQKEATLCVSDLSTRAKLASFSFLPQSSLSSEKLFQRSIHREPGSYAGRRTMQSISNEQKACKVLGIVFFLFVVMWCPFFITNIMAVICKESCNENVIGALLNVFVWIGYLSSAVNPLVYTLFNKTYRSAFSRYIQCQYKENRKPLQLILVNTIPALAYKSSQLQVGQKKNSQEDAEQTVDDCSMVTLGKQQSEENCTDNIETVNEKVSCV
Experimental: The rat aorta (approximately 7 cm) was isolated and removed from the animal (male Sprague Dawley rat, Charles River Laboratories, Hollister, Calif.). The endothelium was removed mechanically. Eight strips of tissue (0.5 cm long) were cut. and were mounted in 10 ml organ baths kept at 37° C. with Krebs solution (composition in mM: NaCl (118.2), KCl (4.6), CaCl2 (2.5), MgSO4 (1.2), KH2PO4 (1.2), NaHCO3 (24.8) and dextrose (10.0)) that was constantly aerated with carbogen gas (95% O2/5% CO2) to obtain a pH of 7.4. The tissues were subjected to a resting tension of 2 g (3 times, 15 minutes apart, equilibrated in Krebs solution). The tissues were then washed 15 minutes later. Ten minutes later, the tissues were then exposed to 0.1 μM phenylephrine. At the maximal effect, 1 μM acetylcholine was added to confirm the absence of endothelium and then washed twice, 2 minutes apart.
Contractions were recorded as changes in tension from baseline and expressed as a percentage of the maximum response of the agonist (5-HT) concentration-effect curve. Agonist concentration-response curves were fitted using a nonlinear iterative fitting program (GraphPad Prism) using the relationship of Parker and Waud (Parker, R. B. and Waud, D. R. (1971). Pharmacological estimation of drug-receptor dissociation constants. Statistical evaluation. I. Agonists. J. Pharmacol. Exp. Ther., 177, 1-12). Agonist potency was expressed as EC50 (molar concentration of agonist producing 50% of the maximum response). Concentration-ratios (CRs) were determined from EC50 values in the presence and absence of antagonist and antagonist affinity estimates (pKB and pA2 values) were determined. All data are expressed as mean±s.e. mean.

[1] = molecular target: T2, human D2s dopamine receptors (Homo sapiens, UniProt P14416); test: hD2S receptor radioligand binding ([3H]spiperone); details: pKi reported on a scale of 1 through 5
T2 construct: expressed in transfected cells; host or cells: Chinese hamster ovary cells (membranes)
T2 sequence (P14416 1-414 isoform P14416-2): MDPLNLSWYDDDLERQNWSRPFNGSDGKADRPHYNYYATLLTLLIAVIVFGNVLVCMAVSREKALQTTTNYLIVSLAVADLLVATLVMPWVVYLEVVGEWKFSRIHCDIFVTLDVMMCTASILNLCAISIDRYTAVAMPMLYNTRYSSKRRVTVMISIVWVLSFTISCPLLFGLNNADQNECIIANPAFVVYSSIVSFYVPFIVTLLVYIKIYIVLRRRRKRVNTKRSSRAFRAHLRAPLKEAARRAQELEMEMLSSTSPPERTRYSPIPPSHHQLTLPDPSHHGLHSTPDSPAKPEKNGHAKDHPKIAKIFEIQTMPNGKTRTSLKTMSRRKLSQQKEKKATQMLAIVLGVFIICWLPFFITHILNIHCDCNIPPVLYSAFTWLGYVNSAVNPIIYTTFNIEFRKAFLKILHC
Experimental: (§1) Consistent with standard competition radioligand binding assays, the methodology was based on displacement of radioligand from tissues (or cell lines) bearing the receptor of interest (Cheng, Y. and Prusoff, W. H. (1973). Biochem. Pharmacol. 22, 3099-3108). The measurements were based on the binding of a single concentration of radiolabeled ligand in the presence of various concentrations of unlabeled ligand.
(§2) Tissues (or cellular plasma membrane fractions) were incubated in the presence of radioligand at equilibrium and in the presence of a range of concentrations of the test compounds (which were non-radiolabeled), and the displaced radioligand was separated from the membranes by filtration. Nonspecific binding was assessed by measuring displacement of the radioligand in the presence of a compound known to block binding of the radioligand to the receptor. Finally, the concentration-response relationship for radioligand displacement (corrected for non-specific binding) was used to assess binding of the test compound to the receptor.

[2] = molecular target: T3, human D2L dopamine receptors (Homo sapiens, UniProt P14416); test: hD2L receptor radioligand binding ([3H]spiperone)
T3 construct: expressed in transfected cells; host or cells: insect Sf9 cells (membranes)
T3 sequence (P14416 whole entry): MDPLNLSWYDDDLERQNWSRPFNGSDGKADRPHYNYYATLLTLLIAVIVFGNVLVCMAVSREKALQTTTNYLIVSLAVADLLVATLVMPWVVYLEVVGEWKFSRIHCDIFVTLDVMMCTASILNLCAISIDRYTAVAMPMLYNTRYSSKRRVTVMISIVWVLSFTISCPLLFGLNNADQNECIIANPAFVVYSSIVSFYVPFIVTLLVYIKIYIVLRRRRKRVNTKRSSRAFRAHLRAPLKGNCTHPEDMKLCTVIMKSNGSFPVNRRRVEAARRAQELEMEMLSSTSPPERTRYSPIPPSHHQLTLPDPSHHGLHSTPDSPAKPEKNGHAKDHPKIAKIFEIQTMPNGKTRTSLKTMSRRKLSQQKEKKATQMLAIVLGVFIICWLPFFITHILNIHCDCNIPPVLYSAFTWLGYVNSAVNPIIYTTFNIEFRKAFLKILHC
Experimental: as §1, §2

human 5HT1A receptors = molecular target: T4, human 5HT1A receptors (Homo sapiens, UniProt P08908); test: h5-HT1A receptor radioligand binding ([3H]8OH-DPAT); details: pKi reported on a scale of 1 through 5
T4 construct: expressed in transfected cells; host or cells: Chinese hamster ovary cells (membranes)
T4 sequence (P08908 1-422): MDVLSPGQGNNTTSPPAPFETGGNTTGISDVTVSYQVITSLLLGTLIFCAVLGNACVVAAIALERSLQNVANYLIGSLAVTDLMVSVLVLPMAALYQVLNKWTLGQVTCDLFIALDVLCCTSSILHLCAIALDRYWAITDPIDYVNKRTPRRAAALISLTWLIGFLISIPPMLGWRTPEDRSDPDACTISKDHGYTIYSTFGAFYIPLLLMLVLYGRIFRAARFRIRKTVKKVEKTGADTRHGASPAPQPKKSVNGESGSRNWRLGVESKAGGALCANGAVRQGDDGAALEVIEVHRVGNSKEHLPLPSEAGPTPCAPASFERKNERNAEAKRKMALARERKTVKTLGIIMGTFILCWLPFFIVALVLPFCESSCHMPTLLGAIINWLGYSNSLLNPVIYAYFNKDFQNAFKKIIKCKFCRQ
Experimental: as §1, §2

human 5HT2C receptors = molecular target: T5, human 5HT2C receptors (Homo sapiens, UniProt P28335); test: h5-HT2C receptor radioligand binding ([3H]Mesulergine); details: pKi reported on a scale of 1 through 5
T5 construct: expressed in transfected cells; host or cells: human embryo kidney cells (membranes)
T5 sequence (P28335 33-458): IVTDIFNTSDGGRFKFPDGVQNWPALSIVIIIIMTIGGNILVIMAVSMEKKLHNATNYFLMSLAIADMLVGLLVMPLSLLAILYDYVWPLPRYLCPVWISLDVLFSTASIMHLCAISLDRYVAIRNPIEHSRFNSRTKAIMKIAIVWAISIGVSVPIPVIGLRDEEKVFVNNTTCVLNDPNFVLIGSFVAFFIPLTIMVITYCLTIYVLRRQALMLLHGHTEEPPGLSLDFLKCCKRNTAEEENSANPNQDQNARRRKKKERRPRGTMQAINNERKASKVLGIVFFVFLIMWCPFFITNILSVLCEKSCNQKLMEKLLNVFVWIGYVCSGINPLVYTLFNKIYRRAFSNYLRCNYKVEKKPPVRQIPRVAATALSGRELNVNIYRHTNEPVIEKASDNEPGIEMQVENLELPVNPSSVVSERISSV
Experimental: The measurements were based on the binding of a single concentration of radiolabeled ligand in the presence of various concentrations of unlabeled ligand.
as §2

human M3 receptors = molecular target: T6, human M3 receptors (Homo sapiens, UniProt P20309); test: hM3 receptor radioligand binding ([3H]NMS)
T6 construct: expressed in transfected cells; host or cells: Chinese hamster ovary cells (membranes)
T6 sequence (P20309 whole entry): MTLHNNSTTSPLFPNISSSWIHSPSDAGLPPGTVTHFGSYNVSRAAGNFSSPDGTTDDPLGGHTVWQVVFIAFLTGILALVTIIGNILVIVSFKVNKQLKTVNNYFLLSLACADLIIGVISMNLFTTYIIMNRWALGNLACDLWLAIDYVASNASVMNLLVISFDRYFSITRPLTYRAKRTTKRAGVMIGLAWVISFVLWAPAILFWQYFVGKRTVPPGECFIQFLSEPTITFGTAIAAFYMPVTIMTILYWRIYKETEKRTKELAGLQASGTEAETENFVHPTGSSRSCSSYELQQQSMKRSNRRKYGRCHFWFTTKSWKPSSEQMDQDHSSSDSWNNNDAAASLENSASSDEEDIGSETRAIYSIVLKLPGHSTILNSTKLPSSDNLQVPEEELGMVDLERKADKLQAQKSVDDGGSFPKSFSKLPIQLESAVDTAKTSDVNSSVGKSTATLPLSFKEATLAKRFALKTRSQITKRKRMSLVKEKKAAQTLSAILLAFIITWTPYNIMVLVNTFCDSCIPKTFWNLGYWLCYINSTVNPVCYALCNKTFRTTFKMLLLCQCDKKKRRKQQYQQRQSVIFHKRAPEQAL
Experimental: as §1, §2

human H1 receptors = molecular target: T7, human H1 receptors (Homo sapiens, UniProt P35367); test: hH1 receptor radioligand binding ([3H]Pyrilamine); details: pKi reported on a scale of 1 through 5
T7 construct: expressed in transfected cells; host or cells: Chinese hamster ovary cells (membranes)
T7 sequence (P35367 whole entry): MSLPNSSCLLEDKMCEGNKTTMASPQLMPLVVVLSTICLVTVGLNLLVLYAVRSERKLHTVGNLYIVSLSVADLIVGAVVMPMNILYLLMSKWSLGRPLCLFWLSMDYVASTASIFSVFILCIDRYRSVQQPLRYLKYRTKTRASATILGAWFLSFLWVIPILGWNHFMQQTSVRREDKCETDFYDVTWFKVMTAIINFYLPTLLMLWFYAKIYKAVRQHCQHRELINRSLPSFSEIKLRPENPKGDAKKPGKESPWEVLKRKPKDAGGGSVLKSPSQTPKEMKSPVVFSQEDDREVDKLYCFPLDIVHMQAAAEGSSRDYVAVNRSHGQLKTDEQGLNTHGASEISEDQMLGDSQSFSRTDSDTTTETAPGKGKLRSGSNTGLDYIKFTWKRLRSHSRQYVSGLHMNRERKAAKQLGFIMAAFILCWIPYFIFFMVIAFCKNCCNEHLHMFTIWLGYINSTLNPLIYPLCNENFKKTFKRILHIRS
Experimental: as §1, §2

human 5HT7 receptors = molecular target: T8, human 5HT7 receptors (Homo sapiens, UniProt P34969); test: h5-HT7 receptor radioligand binding ([3H]5-CT)
T8 construct: expressed in transfected cells; host or cells: Chinese hamster ovary cells (membranes)
T8 sequence (P34969 whole entry): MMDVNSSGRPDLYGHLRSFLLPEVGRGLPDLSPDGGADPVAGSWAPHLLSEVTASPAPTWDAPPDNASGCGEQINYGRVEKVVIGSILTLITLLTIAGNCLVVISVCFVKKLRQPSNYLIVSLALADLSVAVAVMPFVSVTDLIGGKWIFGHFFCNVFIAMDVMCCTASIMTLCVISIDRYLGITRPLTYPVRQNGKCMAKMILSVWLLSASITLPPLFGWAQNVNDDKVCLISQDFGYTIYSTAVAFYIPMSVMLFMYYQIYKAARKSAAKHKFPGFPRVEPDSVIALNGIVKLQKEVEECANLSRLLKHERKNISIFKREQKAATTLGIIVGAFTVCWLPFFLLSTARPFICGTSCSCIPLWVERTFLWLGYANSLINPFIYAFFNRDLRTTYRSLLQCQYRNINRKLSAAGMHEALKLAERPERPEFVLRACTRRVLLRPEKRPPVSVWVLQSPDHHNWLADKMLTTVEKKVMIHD
Experimental: as §1, §2

human M1 receptors = molecular target: T9, human M1 receptors (Homo sapiens, UniProt P11229); test: hM1 receptor radioligand binding ([3H]NMS); details: pKi reported on a scale of 1 through 5
T9 construct: expressed in transfected cells; host or cells: Chinese hamster ovary cells (membranes)
T9 sequence (P11229 1-460): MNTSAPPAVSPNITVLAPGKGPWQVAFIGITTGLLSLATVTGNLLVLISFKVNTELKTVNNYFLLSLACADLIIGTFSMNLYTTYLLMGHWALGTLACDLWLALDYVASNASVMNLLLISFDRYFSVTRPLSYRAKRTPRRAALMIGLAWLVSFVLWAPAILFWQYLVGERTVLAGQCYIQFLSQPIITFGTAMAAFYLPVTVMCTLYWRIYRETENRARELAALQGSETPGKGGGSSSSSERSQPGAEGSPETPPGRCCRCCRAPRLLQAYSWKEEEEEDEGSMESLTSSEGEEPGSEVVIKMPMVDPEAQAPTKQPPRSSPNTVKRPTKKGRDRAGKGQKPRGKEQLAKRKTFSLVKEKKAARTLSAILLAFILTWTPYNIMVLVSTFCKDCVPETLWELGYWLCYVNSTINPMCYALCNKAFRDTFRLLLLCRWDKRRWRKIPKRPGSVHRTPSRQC
Experimental: as §1, §2

[3] = read-out: 5HT2A (pKb) (converted)
[4] = pKi reported on a scale of 1 through 5, read-out: D2L (pKi) (converted)
[5] = pKi reported on a scale of 1 through 5, read-out: M3 (pKi) (converted)
[6] = pKi reported on a scale of 1 through 5, read-out: 5HT7 (pKi) (converted)

Row | SMILES | Kb (5-HT2A receptor) [nM] | Ki [1] [nM] | Ki [2] [nM] | Ki (human 5HT1A receptors) [nM] | Ki (human 5HT2C receptors) [nM] | Ki (human M3 receptors) [nM] | Ki (human H1 receptors) [nM] | Ki (human 5HT7 receptors) [nM] | Ki (human M1 receptors) [nM] | Kb (5-HT2A receptor; [3]) [nM] | Ki [2, 4] [nM] | Ki (human M3 receptors; [5]) [nM] | Ki (human 5HT7 receptors; [6]) [nM]
1 | O=C(C[C@H]1CN(C2=Nc3cc(Cl)ccc3Oc3ccccc32)CCN1)O[C@H]1CN2CCC1CC2 [DT, (R)-quinuclidin-3-yl 2-((S)-4-((E)-8-chlorodibenzo[b,f][1,4]oxazepin-11-yl)piperazin-2-yl)acetate] | > 100 | > 10000 | > 10000 | 100 to 977 | 100 to 977 | > 10000 | 1000 to 9770 | > 10000 | 5010 to 9770 |  |  |  | 
2 | O=C(C[C@H]1CN(C2=Nc3cc(Cl)ccc3Oc3ccccc32)CCN1)NCCCO [Compound FS, (S,E)-2-(4-(8-chlorodibenzo[b,f][1,4]oxazepin-11-yl)piperazin-2-yl)-N-(3-hydroxypropyl)acetamide] |  | 631 to 2450 |  | 10 to 97.7 | 10 to 97.7 |  | ≤ 9.77 |  | > 10000 | 3.16 to 9.77 | 631 to 2450 | > 10000 | < 617
3 | COC(=O)C[C@H]1CN(C2=Nc3cc(Cl)ccc3Oc3ccccc32)CCN1C [DW, (S,E)-methyl 2-(4-(8-chlorodibenzo[b,f][1,4]oxazepin-11-yl)-1-methylpiperazin-2-yl)acetate] |  | > 10000 |  | 1000 to 9770 | 100 to 977 |  | 100 to 977 |  | ≤ 1230 | 31.6 to 97.7 | 2510 to 9770 | > 10000 | 3980 to 9770
4 | CN(CCO)C(=O)C[C@H]1CN(C2=Nc3cc(Cl)ccc3Oc3ccccc32)CCN1 [FO, (S,E)-2-(4-(8-chlorodibenzo[b,f][1,4]oxazepin-11-yl)piperazin-2-yl)-N-(2-hydroxyethyl)-N-methylacetamide] |  | 2510 to 9770 |  | 100 to 977 | 10 to 97.7 |  | 10 to 97.7 |  | 2510 to 4900 | 10 to 30.9 | 2510 to 9770 | > 10000 | 631 to 1550
5 | C[C@@H](O)CNC(=O)C[C@H]1CN(C2=Nc3cc(Cl)ccc3Oc3ccccc32)CCN1 [FB, 2-((S)-4-((E)-8-chlorodibenzo[b,f][1,4]oxazepin-11-yl)piperazin-2-yl)-N-((R)-2-hydroxypropyl)acetamide] |  | 631 to 2450 |  | 10 to 97.7 | 10 to 97.7 |  | 10 to 97.7 |  | > 10000 | < 3.09 | 631 to 2450 | > 10000 | 631 to 1550
